Measurements taken from patent US20220388964A1 (HiberCell, Inc., priority 2019, published 2022).

molecular target: GCN2 (Homo sapiens, UniProt Q9P2K8); test: TR-FRET biochemical assay for inhibition of GCN2 (Example 106, for Example 1-4BB); conditions: Table 8
Sequence (Q9P2K8 whole entry): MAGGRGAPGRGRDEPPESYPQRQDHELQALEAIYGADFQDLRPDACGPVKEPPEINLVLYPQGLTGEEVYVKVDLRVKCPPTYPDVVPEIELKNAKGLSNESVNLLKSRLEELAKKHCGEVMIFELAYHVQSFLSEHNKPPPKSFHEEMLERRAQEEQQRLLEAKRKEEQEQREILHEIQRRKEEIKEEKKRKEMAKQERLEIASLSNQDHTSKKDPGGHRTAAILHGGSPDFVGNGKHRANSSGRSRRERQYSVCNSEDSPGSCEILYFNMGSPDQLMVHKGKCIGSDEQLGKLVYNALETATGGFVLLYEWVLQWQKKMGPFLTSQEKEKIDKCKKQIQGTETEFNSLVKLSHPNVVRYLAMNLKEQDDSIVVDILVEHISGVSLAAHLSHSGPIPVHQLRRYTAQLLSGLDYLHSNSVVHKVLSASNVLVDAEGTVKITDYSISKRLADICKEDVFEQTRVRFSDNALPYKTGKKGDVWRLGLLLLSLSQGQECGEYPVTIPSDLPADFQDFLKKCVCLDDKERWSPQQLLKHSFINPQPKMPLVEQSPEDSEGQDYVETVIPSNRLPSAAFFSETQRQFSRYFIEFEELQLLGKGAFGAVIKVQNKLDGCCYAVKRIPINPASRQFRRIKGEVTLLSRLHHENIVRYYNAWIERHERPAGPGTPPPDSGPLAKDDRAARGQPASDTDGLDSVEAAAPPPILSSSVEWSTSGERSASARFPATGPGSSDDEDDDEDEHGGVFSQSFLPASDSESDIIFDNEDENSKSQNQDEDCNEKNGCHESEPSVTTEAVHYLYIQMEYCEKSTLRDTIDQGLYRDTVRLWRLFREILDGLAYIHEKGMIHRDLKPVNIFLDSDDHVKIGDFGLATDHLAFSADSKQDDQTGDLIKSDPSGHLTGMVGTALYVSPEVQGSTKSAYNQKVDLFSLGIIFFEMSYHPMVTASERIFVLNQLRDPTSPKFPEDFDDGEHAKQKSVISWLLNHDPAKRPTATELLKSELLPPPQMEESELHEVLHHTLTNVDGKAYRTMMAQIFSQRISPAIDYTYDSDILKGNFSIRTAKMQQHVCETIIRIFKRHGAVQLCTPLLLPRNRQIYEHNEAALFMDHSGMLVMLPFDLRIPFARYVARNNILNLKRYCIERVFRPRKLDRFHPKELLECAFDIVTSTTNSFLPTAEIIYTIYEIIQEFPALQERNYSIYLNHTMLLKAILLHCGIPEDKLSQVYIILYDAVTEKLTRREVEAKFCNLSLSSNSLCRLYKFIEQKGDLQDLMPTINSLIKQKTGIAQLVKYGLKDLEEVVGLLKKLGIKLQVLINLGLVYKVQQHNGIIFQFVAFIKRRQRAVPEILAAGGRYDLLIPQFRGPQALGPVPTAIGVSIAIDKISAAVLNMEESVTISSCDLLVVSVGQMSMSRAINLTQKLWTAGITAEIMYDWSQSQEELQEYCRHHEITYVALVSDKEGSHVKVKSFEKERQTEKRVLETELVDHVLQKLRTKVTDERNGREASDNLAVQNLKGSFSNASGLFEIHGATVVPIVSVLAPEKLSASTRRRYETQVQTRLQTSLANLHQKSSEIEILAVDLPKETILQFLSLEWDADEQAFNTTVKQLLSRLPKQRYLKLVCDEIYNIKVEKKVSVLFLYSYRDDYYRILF

SMILES	IC50 [µM]
Cn1nncc1S(=O)(=O)Nc1ccc(F)c(-c2ccc3c(-c4ncc[nH]4)n[nH]c3c2F)c1F [Example 2X, N-(2,4-difluoro-3-(7-fluoro-3-(1H-imidazol-2-yl)-1H-indazol-6-yl)phenyl)-1-methyl-1H-1,2,3-triazole-5-sulfonamide]	2.5 to 10
COc1ncc(Cl)cc1S(=O)(=O)Nc1cccc(-c2ccc3c(-c4ncc[nH]4)n[nH]c3c2F)c1Cl [Example 2O, 5-chloro-N-(2-chloro-3-(7-fluoro-3-(1H-imidazol-2-yl)-1H-indazol-6-yl)phenyl)-2-methoxy-pyridine-3-sulfonamide]	< 0.5
O=S(=O)(Nc1ccc(F)c(-c2ccc3c(-c4ncc[nH]4)n[nH]c3c2F)c1F)c1c(F)cccc1F [Example 2BG, N-(2,4-difluoro-3-(7-fluoro-3-(1H-imidazol-2-yl)-1H-indazol-6-yl)phenyl)-2,6-difluorobenzenesulfonamide]	< 0.5
COc1ncc(Cl)cc1S(=O)(=O)Nc1ccc(F)c(-c2ccc3c(C(=O)NCCO)n[nH]c3c2F)c1F [Example 2CH, 6-(3-((5-chloro-2-methoxy-pyridine)-3-sulfonamido)-2,6-difluorophenyl)-7-fluoro-N-(2-hydroxyethyl)-1H-indazole-3-carboxamide]	< 0.5
O=S(=O)(Nc1ccc(F)c(-c2ccc3c(-c4ncc[nH]4)n[nH]c3c2F)c1F)c1cccnc1 [Example 2CO, N-(2,4-difluoro-3-(7-fluoro-3-(1H-imidazol-2-yl)-1H-indazol-6-yl)phenyl)pyridine-3-sulfonamide]	2.5 to 10
Cc1c(Cl)cccc1S(=O)(=O)Nc1ccc(F)c(-c2ccc3c(-c4ncc[nH]4)n[nH]c3c2F)c1F [Example 2AY, 3-chloro-N-(2,4-difluoro-3-(7-fluoro-3-(1H-imidazol-2-yl)-1H-indazol-6-yl)phenyl)-2-methylbenzenesulfonamide]	< 0.5
Cc1n[nH]c2cc(-c3c(F)ccc(NS(=O)(=O)c4cc(F)ccc4F)c3F)ccc12 [Example 2CC, N-(2,4-difluoro-3-(3-methyl-1H-indazol-6-yl)phenyl)-2,5-difluorobenzenesulfonamide]	2.5 to 10

same assay, conditions: Table 9

SMILES	IC50 [µM]
NC(=O)c1n[nH]c2c(F)c(-c3c(F)ccc(NS(=O)(=O)c4cccn5ccnc45)c3F)ccc12 [Example 3AA, 6-(2,6-difluoro-3-(imidazo-[1,2-a]pyridine-8-sulfon-amido)phenyl)-7-fluoro-1H-indazole-3-carboxamide]	2.5 to 10
COc1ncc(F)cc1S(=O)(=O)Nc1ccc(F)c(-c2ccc3c(C(=O)NCC[C@H](O)CO)n[nH]c3c2F)c1F [Example 3BE, 6-(2,6-difluoro-3-((5-fluoro-2-methoxypyridine)-3-sulfonamido)phenyl)-N-((S)-3,4-dihydroxybutyl)-7-fluoro-1H-indazole-3-carboxamide]	< 0.5
COc1ncc(F)cc1S(=O)(=O)Nc1cccc(-c2ccc3c(C4CCC(=O)N4)n[nH]c3c2F)c1F (centres unmarked) [Example 12, 5-Fluoro-N-(2-fluoro-3-(7-fluoro-3-(5-oxopyrrolidin-2-yl)-1H-indazol-6-yl)phenyl)-2-methoxypyridine-3-sulfonamide]	> 10
NC(=O)c1n[nH]c2c(F)c(-c3c(F)ccc(NS(=O)(=O)c4cc(F)cc5c4CCC5=O)c3F)ccc12 [Example 4S]	< 0.5
COc1ncc(F)cc1S(=O)(=O)Nc1ccc(F)c(-c2ccc3c(C(=O)Nc4cnn(C)c4)n[nH]c3c2F)c1F [Example 3Z, 6-(2,6-difluoro-3-((5-fluoro-2-methoxypyridine)-3-sulfonamido)phenyl)-7-fluoro-1H-(1-methyl-1H-pyrazol-4-yl)-1H-indazole-3-carboxamide]	< 0.5
COc1ncc(F)cc1S(=O)(=O)Nc1nccc(-c2ccc3c(-c4ncc[nH]4)n[nH]c3c2F)c1C#N [Example 31]	0.5 to 2.5
Cc1ncc(F)cc1S(=O)(=O)Nc1ccc(F)c(-c2ccc3c(C(=O)Nc4cnn(C)c4)n[nH]c3c2F)c1F [Example 3DR, 6-(2,6-difluoro-3-((5-fluoro-2-methylpyridine)-3-sulfon-amido)phenyl)-7-fluoro-N-(1-methyl-1H-pyrazol-4-yl)-1H-indazole-3-carboxamide]	< 0.5
COc1ncc(Cl)cc1S(=O)(=O)Nc1ccc(F)c(-c2ccc3c(C(=O)N[C@H]4CCN(C)C4)n[nH]c3c2F)c1F [Example 3AF, 6-(3-((5-chloro-2-methoxy-pyridine)-3-sulfonamido)-2,6-difluorophenyl)-7-fluoro-N-((S)-1-methylpyrrolidin-3-yl)-1H-indazole-3-carboxamide]	< 0.5
COc1ncc(F)cc1S(=O)(=O)Nc1ccc(F)c(-c2ccc3c(C(=O)NCCC(N)=O)n[nH]c3c2F)c1F [Example 3AL, N-(3-amino-3-oxopropyl)-6-(2,6-difluoro-3-((5-fluoro-2-methoxypyridine)-3-sulfonamido)phenyl)-7-fluoro-1H-indazole-3-carboxamide]	< 0.5
COc1ncc(Cl)cc1S(=O)(=O)Nc1ccc(F)c(-c2ccc3c(C(=O)NC4COC4)n[nH]c3c2F)c1F [Example 3B, 6-(3-((5-chloro-2-methoxy-pyridine)-3-sulfonamido)-2,6-difluorophenyl)-7-fluoro-N-(oxetan-3-yl)-1H-indazole-3-carboxamide]	2.5 to 10
COc1ncc(C#N)cc1S(=O)(=O)Nc1ccc(F)c(-c2ccc3c(C(=O)NCCCN(C)C)n[nH]c3c2F)c1F [Example 3BU, 6-(3-((5-cyano-2-methoxy-pyridine)-3-sulfonamido)-2,6-difluorophenyl)-N-(3-(dimethylamino)propyl)-7-fluoro-1H-indazole-3-carboxamide]	0.5 to 2.5
COc1ncc(F)cc1S(=O)(=O)Nc1cccc(-c2ccc3c(-c4nc(CO)c[nH]4)n[nH]c3c2F)c1F [Example 13, 5-Fluoro-N-(2-fluoro-3-(7-fluoro-3-(4-(hydroxymethyl)-1H-imidazol-2-yl)-1H-indazol-6-yl)phenyl)-2-methoxypyridine-3-sulfonamide]	< 0.5
Cc1ncccc1S(=O)(=O)Nc1ncc(F)c(-c2ccc3c(-c4ncc[nH]4)n[nH]c3c2F)c1F [Example 3L, N-(3,5-difluoro-4-(7-fluoro-3-(1H-imidazol-2-yl)-1H-indazol-6-yl)pyridin-2-yl)-2-methylpyridine-3-sulfonamide]	> 10
COc1ncc(F)cc1S(=O)(=O)Nc1ccc(F)c(-c2ccc3c(-c4n[nH]c(=O)[nH]4)n[nH]c3c2F)c1F [Example 3CW, N-(2,4-difluoro-3-(7-fluoro-3-(5-oxo-4,5-dihydro-1H-1,2,4-triazol-3-yl)-1H-indazol-6-yl)phenyl)-5-fluoro-2-methoxypyridine-3-sulfonamide]	< 0.5
Cc1ncc(F)cc1S(=O)(=O)Nc1ccc(F)c(-c2ccc3c(C(=O)Nc4cn[nH]c4)n[nH]c3c2F)c1F [Example 3DS, 6-(2,6-difluoro-3-((5-fluoro-2-methylpyridine)-3-sulfonamido)phenyl)-7-fluoro-N-(1H-pyrazol-4-yl)-1H-indazole-3-carboxamide]	< 0.5
COc1ncc(Cl)cc1S(=O)(=O)Nc1cc(F)cc(-c2ccc3c(C(=O)N[C@@H]4CCN(C)C4)n[nH]c3c2F)c1F [Example 3BL, 6-(3-((5-chloro-2-methoxy-pyridine)-3-sulfonamido)-2,5-difluorophenyl)-7-fluoro-N-((R)-1-methylpyrrolidin-3-yl)-1H-indazole-3-carboxamide]	< 0.5
COc1ncc(F)cc1S(=O)(=O)Nc1cccc(-c2ccc3c(C(=O)NC[C@@H](O)CO)n[nH]c3c2F)c1F [Example 3AX, 6-(2-fluoro-3-((5-fluoro-2-methoxypyridine)-3-sulfonamido)phenyl)-N-((R)-2,3-dihydroxypropyl)-7-fluoro-1H-indazole-3-carboxamide]	0.5 to 2.5
Cc1ncc(F)cc1S(=O)(=O)Nc1ccc(F)c(-c2ccc3c(C(=O)Nc4cnoc4)n[nH]c3c2F)c1F [Example 3DQ, 6-(2,6-difluoro-3-((5-fluoro-2-methylpyridine)-3-sulfonamido)phenyl)-7-fluoro-N-(isoxazol-4-yl)-1H-indazole-3-carboxamide]	< 0.5
COc1ncc(Cl)cc1S(=O)(=O)Nc1nccc(-c2ccc3c(-c4ncc[nH]4)n[nH]c3c2F)c1F [Example 11, 5-Chloro-N-(3-fluoro-4-(7-fluoro-3-(1H-imidazol-2-yl)-1H-indazol-6-yl)pyridin-2-yl)-2-methoxypyridine-3-sulfonamide]	> 10
Cc1nc(C)c(S(=O)(=O)Nc2cc(F)cc(-c3ccc4c(-c5ncc[nH]5)n[nH]c4c3F)c2F)s1 [Example 3BY, N-(2,5-difluoro-3-(7-fluoro-3-(1H-imidazol-2-yl)-1H-indazol-6-yl)phenyl)-2,4-dimethylthiazole-5-sulfonamide]	< 0.5
COc1nc(C)c(Cl)cc1S(=O)(=O)Nc1ccc(F)c(-c2ccc3c(-c4ncc[nH]4)n[nH]c3c2F)c1F [Example 3DD, 5-chloro-N-(2,4-difluoro-3-(7-fluoro-3-(1H-imidazol-2-yl)-1H-indazol-6-yl)phenyl)-2-methoxy-6-methylpyridine-3-sulfonamide]	< 0.5
COc1ncc(F)cc1S(=O)(=O)Nc1ccc(F)c(-c2ccc3c(-c4nc(CO)c[nH]4)n[nH]c3c2F)c1F [Example 3X, N-(2,4-difluoro-3-(7-fluoro-3-(4-(hydroxymethyl)-1H-imidazol-2-yl)-1H-indazol-6-yl)phenl)-5-fluoro-2-methoxypyridine-3-sulfonamide]	< 0.5
O=C(NCCCO)c1n[nH]c2c(F)c(-c3c(F)ccc(NS(=O)(=O)c4cc(F)cc5c4CCC5O)c3F)ccc12 (centres unmarked) [Example 4T]	< 0.5
COc1ncc(F)cc1S(=O)(=O)Nc1ccc(C#N)c(-c2ccc3c(C(=O)NCCCO)n[nH]c3c2F)c1F [Example 3CA, 6-(6-cyano-2-fluoro-3-((5-fluoro-2-methoxypyridine)-3-sulfonamido)phenyl)-7-fluoro-N-(3-hydroxypropyl)-1H-indazole-3-carboxamide]	< 0.5
COc1ncc(F)cc1S(=O)(=O)Nc1cccc(-c2ccc3c(C(=O)NCC[C@H](O)CO)n[nH]c3c2F)c1F [Example 3BG, 6-(2-fluoro-3-((5-fluoro-2-methoxypyridine)-3-sulfonamido)phenyl)-N-((S)-3,4-dihydroxybutyl)-7-fluoro-1H-indazole-3-carboxamide]	< 0.5
